Source: patent publication US20260200849A1, “CATIONIC LIPIDS AND PREPARATION METHOD THEREOF” (RiboX Therapeutics HK Limited, priority 2024, published 2026)
Values joined by “and” are separate entries in the source; they are usually repeats but may differ in a detail not shown here. Identical values can stand only once.

How the values were obtained:
[1] = LNP size and polydispersity index (PDI) by dynamic light scattering (Zetasizer); assay type: physicochemical; conditions: for Size (nm): Formulation No. 010 (Ionizable lipid:DSPC:cholesterol:DSPE-PEG2000 = 38:30:30:2, N/P 6), RNA No. 331
Description: (§1) The LNP size and polydispersity index (PDI), determined by dynamic light scattering (DLS), and zeta potential were measured by a Zetasizer machine (Malvern). RNA concentration and encapsulation efficacy (EE %) were analyzed by the Quant-IT Ribogreen kit by calculating the percentage encapsulation at 100%—(RNA-LNPs/RNA-LNPs with Triton X-100).

Hep G2 cells [2] = test: In vitro expression: luciferase activity in Hep G2 cells transfected with RNA-LNPs; assay type: cell-based; conditions: 100 ng/mL RNA-LNPs, 72 hours post transfection
Description: 2E5 Hep G2 cells were transfected with 100 ng/mL of RNA-LNPs encoding for firefly-luciferase. At 72 hours post transfection, the cells were washed and lysed. The luciferase expression (2-well repeat) was determined in the cell lysates with the luciferase assay reagent kit (Promega), according to the kit protocol, luciferase activity was measured by a luminometer.

[3] = RNA encapsulation efficacy (EE %) by Quant-IT Ribogreen kit; assay type: physicochemical; conditions: LNP
Description: as §1

injection site skin = test: In vivo tolerability after intradermal injection: H&E staining of injection site skin; set-up: species or system C57BL/6J mice; key to Infiltration, mononuclear cells, dermis/subcutaneous, focal, Grade / Edema, subcutaneous, focal, Grade / Erosion, focal, Grade / Skin, Grade: 1==minimal; 2=mild; 3=moderate; 4=marked; 5=severe; N=Normal; NA=Not applicable; —=No data; conditions: intradermal 0.15 mg/kg, 72 h, Formulation 001, RNA 331; for Edema, subcutaneous, focal, Grade / Erosion, focal, Grade / Infiltration, mononuclear cells, dermis/subcutaneous, focal, Grade: per animal; for Total score: sum of lesion grades of the group (N=3)
Description: 7-8 week old, female C57BL/6J mice (N=3) were injected with 0.15 mg*kg−1 of RNA-LNIPs encoding for firefly-luciferase by intradermal injection. At 72-hours post injection, injection site skin from each animal was collected in 10% formalin, for H&E staining. PBS group (N=2) as control. (Note: 1==minimal, 2=mild, 3=moderate, 4=marked, 5=severe; N=Normal; NA=Not applicable; —=No data)

hEPO = test: In vivo expression by IM: serum hEPO concentration by ELISA; conditions: IM 0.075 mg/kg, male C57BL/6J mice N=3, Formulation 001, RNA 019
Description: Circular RNA payloads were suspended in 25 mM Acetate Buffer (pH 4.5). To form LNPs, three volumes of human erythropoietin (hEPO) encoding cirRNA (SEQ ID NO:2), were mixed with one volume of lipids in ethanol solution by microfluidic mixing with the INano™ L+ (Micro& Nano) at a flow rate of 12 ml/min. The molar ratio of ionizable lipid to ribonucleotide was 6. After encapsulation, the particles were dialyzed twice against PBS. The LNP formulation was concentrated to targeted RNA concentration by Amicon® Ultra Centrifugal Filter (100 kDa MWCO) and filtered by a 0.65/0.22 um sterile filter.
6-8 week old, male C57BL/6J mice (N=3) were injected with 0.075 mg*kg−1 of RNA-LNPs encoding for hEPO by intramuscular injection. At 2-/6-/24-/48-/72 h-hours post injection, about 80 μL blood will be harvested and immediately added to the procoagulant containing tube. Stand for 30 min at room temperature and then centrifuged at 2500 g×10 min to obtain serum. About 30 μL serum samples will be aliquoted for hEPO concentration detection by ELISA kit (STEMCELL Technologies).

Hep G2 cells [4] = test: In vitro toxicity: Hep G2 cell viability by CellTiter-Glo; assay type: cell-based; conditions: 72 hours post transfection, cell only = 100%
Description: 2E5 Hep G2 cells were transfected with 1 μg/mL RNA-LNPs. At 72 hours post transfection, cell viability (2-well repeat) was determined with the CellTiter-Glo® reagent kit, according to the kit protocol, measured by a luminometer. Cell only as control (100%).
The cell viability was calculated according to the following formula: […]

Balb/c mice = test: In vivo expression by IV, 0.05 mg/kg luciferase RNA-LNPs, IVIS luminescence; conditions: Formulation No. 010, RNA No. 331, female Balb/c mice, 0.05 mg*kg−1 intravenous; for Whole body at 24 h (p/s) (Mean): 24 hours post injection; for Whole body at 72 h (p/s) (Mean): 72 hours post injection
How it was run: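 IVIS bioluminescence was read after IP luciferin (15 mg/ml): whole-body at 24 and 72 h, or whole-body/liver/spleen at 24 h. Dosing was a single IV injection of 0.05 mg*kg−1 RNA-LNPs encoding firefly luciferase into 7-8 week old female Balb/c mice, N=3.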

C57BL/6J mice = test: In vivo expression by ID, whole-body/injection site skin/lymph node luminescence; conditions: intradermal 0.15 mg/kg, 72 h post injection, female C57BL/6J mice N=3, Formulation 001, RNA 331
Description: 7-8 week old, female C57BL/6J mice (N=3) were injected with 0.15 mg*kg−1 of RNA-LNPs encoding for firefly-luciferase by intradermal injection. At 72-hours post injection, animals were intraperitoneally injected with 15 mg/mi of Luciferin substrate and whole-body/injection site skin/lymph node luminescence were determined by a bioluminescent in vivo imaging system (IVIS).

[5] = Formulation No. 001, RNA No. 019 (hEPO)
[6] = Formulation No. 001, RNA No. 331
[7] = Formulation No. 010, RNA No. 331
[8] = Formulation No. 010, RNA No. 331 (firefly-luciferase)
[9] = 1 μg/mL RNA-LNPs, Formulation 001, RNA 331
[10] = Formulation No. 010, RNA No. 331, 1 μg/mL RNA-LNPs

PDI [1, 5]	PDI [1, 6]	Size [1, 6] [nm]	Size (nm) [1] [nm]	PDI [1, 7]	EE (%) [3, 6] [%]	EE (%) [3, 7] [%]	SMILES	In vitro Expression (Mean) (Hep G2 cells [2]; Formulation 001, RNA 331)	In vitro Expression (Mean) (Hep G2 cells [2]; [8])	Edema, subcutaneous, focal, Grade (injection site skin)	Erosion, focal, Grade (injection site skin)	Infiltration, mononuclear cells, dermis/subcutaneous, focal, Grade (injection site skin)	Total score (injection site skin)	In vitro cell viability (%) (Mean) (Hep G2 cells [4]; [9])	In vitro cell viability (%) (Mean) (Hep G2 cells [4]; [10])	Whole body at 24 h (p/s) (Mean) (Balb/c mice)	Whole body at 72 h (p/s) (Mean) (Balb/c mice)	Injection site Skin (p/s) (C57BL/6J mice)	Lymph node (p/s) (C57BL/6J mice)	Whole body (p/s) (C57BL/6J mice)	also measured
0.04	0.08	76.34	64.73	0.16	97.94	97.13	CCCCC/C=C\C/C=C\CCCCCCCC(=O)N[C@@H](COC(=O)NCCN1CCCCCC1)C(=O)OCCCCCCCC(=O)OC(CCCCCCCC)CCCCCCCC [Lipid 602]	5.82E+05	6.30E+05	1 (2×) and 2	—	1	7	82.68	84.17	2.66E+08	1.24E+08	3.02E+07	3.01E+06	1.40E+08	Size [1, 5]: 67.47 nm; EE (%) [3, 5]: 95.79%; hEPO conc. (ng/mL) at 2 h (hEPO): 1.02 ng/mL; hEPO conc. (ng/mL) at 6 h (hEPO): 5.02 ng/mL; hEPO conc. (ng/mL) at 24 h (hEPO): 7.65 ng/mL; hEPO conc. (ng/mL) at 48 h (hEPO): 2.44 ng/mL; hEPO conc. (ng/mL) at 72 h (hEPO): 0.76 ng/mL
	0.05	76.53	59.50	0.09	97.08	96.20	CCCCC/C=C\C/C=C\CCCCCCCC(=O)N[C@H](COC(=O)NCCN1CCCCCC1)C(=O)OCCCCCC(=O)OC(CCCCCCCC)CCCCCCCC [Lipid 730]	5.98E+05	7.72E+05	1	—	1	6	75.29	98.64	2.24E+08	8.49E+07	1.63E+07	3.33E+06	2.81E+07	
0.04	0.09	80.16	62.33	0.08	95.30	95.98	CCCCC/C=C\C/C=C\CCCCCCCC(=O)N[C@@H](COC(=O)NCCN1CCCCC1)C(=O)OCCCCCCCC(=O)OC(CCCCCCCC)CCCCCCCC [Lipid 601]	9.94E+05	6.24E+05	1	—	1	6	81.18	98.14	3.82E+08	8.02E+07	9.69E+06	1.89E+06	5.92E+07	Size [1, 5]: 73.40 nm; EE (%) [3, 5]: 90.47%; hEPO conc. (ng/mL) at 2 h (hEPO): 1.12 ng/mL; hEPO conc. (ng/mL) at 6 h (hEPO): 7.35 ng/mL; hEPO conc. (ng/mL) at 24 h (hEPO): 12.74 ng/mL; hEPO conc. (ng/mL) at 48 h (hEPO): 3.29 ng/mL; hEPO conc. (ng/mL) at 72 h (hEPO): 1.06 ng/mL
0.04	0.15	72.66	67.81	0.13	94.50	94.88	CCCCC/C=C\C/C=C\CCCCCCCC(=O)NC(COC(=O)NCCN1CCCCCC1)C(=O)OCCCCCCCC(=O)OC(CCCCCCCC)CCCCCCCC (stereo not shown) [Lipid 550]	1.89E+05	5.74E+05	1	1 and — (2×)	1	7	67.09	87.47	2.36E+08	4.96E+07	1.33E+07	2.06E+06	3.09E+07	Size [1, 5]: 66.58 nm; EE (%) [3, 5]: 92.20%; hEPO conc. (ng/mL) at 2 h (hEPO): 1.56 ng/mL; hEPO conc. (ng/mL) at 6 h (hEPO): 6.19 ng/mL; hEPO conc. (ng/mL) at 24 h (hEPO): 9.69 ng/mL; hEPO conc. (ng/mL) at 48 h (hEPO): 2.38 ng/mL; hEPO conc. (ng/mL) at 72 h (hEPO): 0.67 ng/mL
